The numbers were not newly measured in patent US20230048872A1, “COMPOSITIONS AND METHODS FOR DIAGNOSING OR TREATING NEUTROPHIL-MEDIATED INFLAMMATORY DISEASE” (THE BOARD OF TRUSTEES OF THE UNIVERSITY OF ILLINOIS, priority 2013, published 2023), which cites them from elsewhere.

Turning to `Oc1cc(O)cc(/C=C/c2ccc(O)c(O)c2)c1` [Piceatannol, piceatannol], the solubility in water entry is on record as “low”.
